Measured values as given in patent US20250064760A1, “INTRACANALICULAR INSERT COMPRISING A NON-STEROIDAL ANTI-INFLAMMATORY AGENT” (OCULAR THERAPEUTIX, INC., priority 2022, published 2025).
Converted amounts (≈) assume the structure as drawn. “And” between values parts separate entries of the source, which are not always exact repeats. Equal entries are not always repeated.

Assays:
[1] = biological target: T1, cyclooxygenase-2 (COX-2) enzyme (Homo sapiens, UniProt P35354); settings: Walters et al., 2007; cited from earlier work
T1 sequence (P35354 18-604): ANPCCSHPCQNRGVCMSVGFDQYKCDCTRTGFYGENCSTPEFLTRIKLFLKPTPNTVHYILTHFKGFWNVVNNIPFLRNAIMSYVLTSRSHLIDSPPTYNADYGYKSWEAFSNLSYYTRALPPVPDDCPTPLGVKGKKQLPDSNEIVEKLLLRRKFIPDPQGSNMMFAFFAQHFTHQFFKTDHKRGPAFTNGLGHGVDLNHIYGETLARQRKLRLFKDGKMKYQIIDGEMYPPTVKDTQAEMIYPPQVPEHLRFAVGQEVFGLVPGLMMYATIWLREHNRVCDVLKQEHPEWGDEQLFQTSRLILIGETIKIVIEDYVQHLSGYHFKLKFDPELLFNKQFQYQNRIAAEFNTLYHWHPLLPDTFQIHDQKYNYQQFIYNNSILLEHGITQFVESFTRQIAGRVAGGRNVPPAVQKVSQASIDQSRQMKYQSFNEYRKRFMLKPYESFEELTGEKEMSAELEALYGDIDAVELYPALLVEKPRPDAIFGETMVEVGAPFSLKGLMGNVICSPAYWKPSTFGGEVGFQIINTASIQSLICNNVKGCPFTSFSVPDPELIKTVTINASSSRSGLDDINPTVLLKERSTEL

[2] = cited from earlier work
[3] = aqueous suspension at 0.1%; cited from earlier work
Nepafenac solubility = type: physicochemical; settings: aqueous buffer; PBS, pH 7.2 at 37° C.
Experimental: Nepafenac is a monocarboxylic acid amide that is amfenac in which the carboxylic acid group has been converted into the corresponding carboxamide. Nepafenac is yellow crystalline or powdery substance practically insoluble in water (14 mcg/mL). Nepafenac is soluble in organic solvents such as ethanol, DMSO, and dimethyl formamide (DMF). The solubility of nepafenac in ethanol is approximately 0.5 mg/mL and approximately 30 mg/ml in DMSO and DMF. An aqueous suspension at 0.1% gives an average pH of 6.75. The coefficient partition n-octanol/water is 128. […] Nepafenac is an achiral substance and there are no possible variations in the stereochemical configuration.
Nepafenac solubility testing in PBS, pH 7.2 at 37° C. is approximately 102 mcg/mL.

[4] = cited from earlier work; remark: listed apart in the source

| solubility (Nepafenac solubility) [µg/mL] | Structure (SMILES) | IC50 [1] | solubility in DMF ([2]; DMF) | solubility in DMSO ([2]; DMSO) | solubility in ethanol ([2]; ethanol) | solubility in water ([2]; water) [µg/mL] | average pH of aqueous suspension [3] | coefficient partition n-octanol/water [4] |
| --- | --- | --- | --- | --- | --- | --- | --- | --- |
| – | Nc1c(CC(=O)O)cccc1C(=O)c1ccccc1 [amfenac] | ~1.76 nM and 1.76 nM | – | – | – | – | – | – |
| ~102 (≈ 401 µM) | NC(=O)Cc1cccc(C(=O)c2ccccc2)c1N [Nepafenac, 2-(2-amino-3-benzoylphenyl)acetamide] | – | approximately 30 mg/ml | approximately 30 mg/ml | approximately 0.5 mg/mL | 14 (≈ 55.1 µM) | 6.75 | 128 |
